From patent US12077503B2, “Substituted cyclic amides and their use as herbicides” (FMC CORPORATION, priority 2015, dated 2024)

Tests used:
Format in all cases: in vivo
[1] = system: giant foxtail (Setaria faberi); experiment: Test G Post-Emergence Protocol; details: Setaria faberi, post-emergence, 312 h; for pest or weed control at 15.625 g/ha: 15.625 g ai/ha, evaluated after 13 days (100=total damage to plant; 0=no damage to plant), read-out: Foxtail, Giant damage rating; for pest or weed control at 62.5 g/ha: 62.5 g ai/ha, read-out: Foxtail, Giant damage rating (100=total damage to plant; 0=no damage to plant); for pest or weed control at 62.5 g/ha / pest or weed control at 250 g/ha: evaluated after 13 days; for pest or weed control at 250 g/ha: 250 g ai/ha, read-out: damage to plant, Foxtail, Giant (100=total damage to plant; 0=no damage to plant)
Outline: (§1)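 Foliar application was made 8 days after sowing, using an aqueous spray of the active in acetone/water (50:50) with 0.5% Tween 20, at doses of 15.625, 62.5 or 250 g/ha. Injury was assessed 13 days later, where 100 meant the plant was fully damaged.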

[2] = system: barnyardgrass (Echinochloa crus-galli); experiment: Test G Post-Emergence Protocol; details: Echinochloa crus-galli, post-emergence, 312 h; for pest or weed control at 15.625 g/ha: 15.625 g ai/ha, evaluated after 13 days (100=total damage to plant; 0=no damage to plant), read-out: Barnyardgrass damage rating; for pest or weed control at 62.5 g/ha: 62.5 g ai/ha, read-out: Barnyardgrass damage rating (100=total damage to plant; 0=no damage to plant); for pest or weed control at 62.5 g/ha / pest or weed control at 250 g/ha: evaluated after 13 days; for pest or weed control at 250 g/ha: 250 g ai/ha, read-out: damage to plant, Barnyardgrass (100=total damage to plant; 0=no damage to plant)
Outline: as §1

[3] = system: velvetleaf (Abutilon theophrasti); experiment: Test G Post-Emergence Protocol; details: Abutilon theophrasti, post-emergence, 312 h; for pest or weed control at 15.625 g/ha: 15.625 g ai/ha, evaluated after 13 days (100=total damage to plant; 0=no damage to plant), read-out: Velvetleaf damage rating; for pest or weed control at 62.5 g/ha: 62.5 g ai/ha, read-out: Velvetleaf damage rating (100=total damage to plant; 0=no damage to plant); for pest or weed control at 62.5 g/ha / pest or weed control at 250 g/ha: evaluated after 13 days; for pest or weed control at 250 g/ha: 250 g ai/ha, read-out: damage to plant, Velvetleaf (100=total damage to plant; 0=no damage to plant)
Outline: as §1

[4] = system: ivy-leaved morning glory (Ipomoea hederacea); experiment: Test G Post-Emergence Protocol; details: Ipomoea, post-emergence, 312 h; for pest or weed control at 15.625 g/ha: 15.625 g ai/ha, evaluated after 13 days (100=total damage to plant; 0=no damage to plant), read-out: Morningglory, Ivy-leaved damage rating; for pest or weed control at 62.5 g/ha: 62.5 g ai/ha, read-out: Morningglory, Ivy-leaved damage rating (100=total damage to plant; 0=no damage to plant); for pest or weed control at 62.5 g/ha / pest or weed control at 250 g/ha: evaluated after 13 days; for pest or weed control at 250 g/ha: 250 g ai/ha, read-out: damage to plant, Morningglory, Ivy-leaved (100=total damage to plant; 0=no damage to plant)
Outline: as §1

[5] = system: redroot pigweed (Amaranthus retroflexus); experiment: Test G Post-Emergence Protocol; details: Amaranthus retroflexus, post-emergence, 312 h; for pest or weed control at 15.625 g/ha: 15.625 g ai/ha, evaluated after 13 days (100=total damage to plant; 0=no damage to plant), read-out: Pigweed, Redroot damage rating; for pest or weed control at 62.5 g/ha: 62.5 g ai/ha, read-out: Pigweed, Redroot damage rating (100=total damage to plant; 0=no damage to plant); for pest or weed control at 62.5 g/ha / pest or weed control at 250 g/ha: evaluated after 13 days; for pest or weed control at 250 g/ha: 250 g ai/ha, read-out: damage to plant, Pigweed, Redroot (100=total damage to plant; 0=no damage to plant)
Outline: as §1

corn (Zea mays) [6] = experiment: Test G Post-Emergence Protocol; details: Zea mays, post-emergence, 312 h; for plant injury at 15.625 g/ha: 15.625 g ai/ha, evaluated after 13 days (100=total damage to plant; 0=no damage to plant), read-out: Corn damage rating; for plant injury at 62.5 g/ha: 62.5 g ai/ha, read-out: Corn damage rating (100=total damage to plant; 0=no damage to plant); for plant injury at 62.5 g/ha / plant injury at 250 g/ha: evaluated after 13 days; for plant injury at 250 g/ha: 250 g ai/ha, read-out: damage to plant, Corn (100=total damage to plant; 0=no damage to plant)
Outline: as §1

[7] = system: giant foxtail (Setaria faberi); experiment: Test G Pre-Emergence Protocol; details: Setaria faberi, pre-emergence, 312 h, evaluated after 13 days; for pest or weed control at 15.625 g/ha: 15.625 g ai/ha; for pest or weed control at 15.625 g/ha / pest or weed control at 250 g/ha: read-out: Foxtail, Giant damage rating (100=total damage to plant; 0=no damage to plant); for pest or weed control at 62.5 g/ha: 62.5 g ai/ha, 100=total damage to plant, 0=no damage to plant, read-out: plant damage rating, Foxtail, Giant; for pest or weed control at 250 g/ha: 250 g ai/ha
Outline: (§2)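 Pre-emergence spray, 15.625/62.5/250 g/ha, vehicle acetone:water 50:50 + 0.5% Tween 20, applied 1 d after sowing. Glasshouse 24/16° C, 14 h light, 65% RH, watered twice daily. Visual damage rating at 13 d, 0–100 scale.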

[8] = system: barnyardgrass (Echinochloa crus-galli); experiment: Test G Pre-Emergence Protocol; details: Echinochloa crus-galli, pre-emergence, 312 h, evaluated after 13 days; for pest or weed control at 15.625 g/ha: 15.625 g ai/ha, read-out: Barnyard grass damage rating (100=total damage to plant; 0=no damage to plant); for pest or weed control at 62.5 g/ha: 62.5 g ai/ha, 100=total damage to plant, 0=no damage to plant, read-out: plant damage rating, Barnyardgrass; for pest or weed control at 250 g/ha: 250 g ai/ha, read-out: Barnyardgrass damage rating (100=total damage to plant; 0=no damage to plant)
Outline: as §2

[9] = system: velvetleaf (Abutilon theophrasti); experiment: Test G Pre-Emergence Protocol; details: Abutilon theophrasti, pre-emergence, 312 h, evaluated after 13 days; for pest or weed control at 15.625 g/ha: 15.625 g ai/ha; for pest or weed control at 15.625 g/ha / pest or weed control at 250 g/ha: read-out: Velvetleaf damage rating (100=total damage to plant; 0=no damage to plant); for pest or weed control at 62.5 g/ha: 62.5 g ai/ha, 100=total damage to plant, 0=no damage to plant, read-out: plant damage rating, Velvetleaf; for pest or weed control at 250 g/ha: 250 g ai/ha
Outline: as §2

[10] = system: ivy-leaved morning glory (Ipomoea hederacea); experiment: Test G Pre-Emergence Protocol; details: Ipomoea, pre-emergence, 312 h, evaluated after 13 days; for pest or weed control at 15.625 g/ha: 15.625 g ai/ha, read-out: Morning-glory, Ivy-leaved damage rating (100=total damage to plant; 0=no damage to plant); for pest or weed control at 62.5 g/ha: 62.5 g ai/ha, 100=total damage to plant, 0=no damage to plant, read-out: plant damage rating, Morningglory, Ivy-leaved; for pest or weed control at 250 g/ha: 250 g ai/ha, read-out: Morningglory, Ivy-leaved damage rating (100=total damage to plant; 0=no damage to plant)
Outline: as §2

[11] = system: redroot pigweed (Amaranthus retroflexus); experiment: Test G Pre-Emergence Protocol; details: Amaranthus retroflexus, pre-emergence, 312 h, evaluated after 13 days; for pest or weed control at 62.5 g/ha: 62.5 g ai/ha, 100=total damage to plant, 0=no damage to plant, read-out: plant damage rating, Pigweed, Redroot; for pest or weed control at 250 g/ha: 250 g ai/ha
Outline: as §2

corn (Zea mays) [12] = experiment: Test G Pre-Emergence Protocol; details: Zea mays, pre-emergence, 312 h, evaluated after 13 days; for plant injury at 15.625 g/ha: 15.625 g ai/ha; for plant injury at 15.625 g/ha / plant injury at 250 g/ha: read-out: Corn damage rating (100=total damage to plant; 0=no damage to plant); for plant injury at 62.5 g/ha: 62.5 g ai/ha, 100=total damage to plant, 0=no damage to plant, read-out: plant damage rating, Corn; for plant injury at 250 g/ha: 250 g ai/ha
Outline: as §2

[13] = read-out: Pigweed, Redroot damage rating (100=total damage to plant; 0=no damage to plant)

Compound | pest or weed control at 15.625 g/ha [1] [%] | pest or weed control at 62.5 g/ha [1] [%] | pest or weed control at 250 g/ha [1] [%] | pest or weed control at 15.625 g/ha [2] [%] | pest or weed control at 62.5 g/ha [2] [%] | pest or weed control at 250 g/ha [2] [%] | pest or weed control at 15.625 g/ha [3] [%] | pest or weed control at 62.5 g/ha [3] [%] | pest or weed control at 250 g/ha [3] [%] | pest or weed control at 15.625 g/ha [4] [%] | pest or weed control at 62.5 g/ha [4] [%] | pest or weed control at 250 g/ha [4] [%] | pest or weed control at 15.625 g/ha [5] [%] | pest or weed control at 62.5 g/ha [5] [%] | pest or weed control at 250 g/ha [5] [%] | plant injury at 15.625 g/ha (corn (Zea mays) [6]) [%] | plant injury at 62.5 g/ha (corn (Zea mays) [6]) [%] | plant injury at 250 g/ha (corn (Zea mays) [6]) [%] | pest or weed control at 15.625 g/ha [7] [%] | pest or weed control at 62.5 g/ha [7] [%] | also measured
COc1ccc([C@H]2CN(C)C(=O)[C@@H]2C(=O)Nc2ccccc2F)c(C)c1 (racemic) [Compound 1455] | 10 | 10 | 50 | 0 | 0 | 20 | 0 | 0 | 10 | 0 | 0 | 20 | 0 | 0 | 40 | 10 | 10 | 20 | 30 | 70 | pest or weed control at 250 g/ha [7]: 90%; pest or weed control at 15.625 g/ha [8]: 30%; pest or weed control at 62.5 g/ha [8]: 70%; pest or weed control at 250 g/ha [8]: 90%; pest or weed control at 15.625 g/ha [9]: 0%; pest or weed control at 62.5 g/ha [9]: 30%; pest or weed control at 250 g/ha [9]: 0%; pest or weed control at 15.625 g/ha [10]: 0%; pest or weed control at 62.5 g/ha [10]: 0%; pest or weed control at 250 g/ha [10]: 20%; pest or weed control at 62.5 g/ha [11]: 0%; pest or weed control at 250 g/ha [11, 13]: 0%; plant injury at 15.625 g/ha (corn (Zea mays) [12]): 0%; plant injury at 62.5 g/ha (corn (Zea mays) [12]): 0%; plant injury at 250 g/ha (corn (Zea mays) [12]): 10%
CN1C[C@@H](c2ccc(C(F)(F)F)cc2)[C@H](C(=O)Nc2cc(F)ncn2)C1=O (racemic) [Compound 1509] | 0 | 0 | 0 | 0 | 0 | 0 | 0 | 0 | 0 | 0 | 0 | 0 | 0 | 0 | 0 | 0 | 0 | 0 | 0 | 0 | pest or weed control at 250 g/ha [7]: 0%; pest or weed control at 15.625 g/ha [8]: 0%; pest or weed control at 62.5 g/ha [8]: 0%; pest or weed control at 250 g/ha [8]: 0%; pest or weed control at 15.625 g/ha [9]: 0%; pest or weed control at 62.5 g/ha [9]: 0%; pest or weed control at 250 g/ha [9]: 0%; pest or weed control at 15.625 g/ha [10]: 0%; pest or weed control at 62.5 g/ha [10]: 0%; pest or weed control at 250 g/ha [10]: 0%; pest or weed control at 15.625 g/ha ([11]; 15.625 g ai/ha, read-out: Pigweed, Redroot damage rating (100=total damage to plant; 0=no damage to plant)): 0%; pest or weed control at 62.5 g/ha [11]: 0%; pest or weed control at 250 g/ha [11, 13]: 0%; plant injury at 15.625 g/ha (corn (Zea mays) [12]): 0%; plant injury at 62.5 g/ha (corn (Zea mays) [12]): 0%; plant injury at 250 g/ha (corn (Zea mays) [12]): 0%
